Measured values taken from PubChem BioAssay (NCI).
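96-well plates; 48 h exposure; 5 concentrations. Endpoints by linear interpolation between flanking doses. Not reached: highest tested concentration assigned. TGI: total growth inhibition.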

What was measured:
Assay in all cases: NCI-60 cell line screen, 48 h
HOP-92 NSCLC = test system: HOP-92 NSCLC
SF-295 CNS = test system: SF-295 CNS
HCT-116 colon = test system: HCT-116 colon
HS 578T breast = test system: HS 578T breast
EKVX NSCLC = test system: EKVX NSCLC
ACHN renal = test system: ACHN renal
MDA-MB-231 breast = test system: MDA-MB-231 breast
RPMI-8226 leukemia = test system: RPMI-8226 leukemia
HCT-15 colon = test system: HCT-15 colon
PC-3 prostate = test system: PC-3 prostate

In the case of `Cc1ccc(C(=O)Nc2ccc(S(=O)(=O)O)c3cc(S(=O)(=O)O)cc(S(=O)(=O)O)c23)cc1NC(=O)c1cccc(NC(=O)Nc2cccc(C(=O)Nc3cc(C(=O)Nc4ccc(S(=O)(=O)O)c5cc(S(=O)(=O)O)cc(S(=O)(=O)O)c45)ccc3C)c2)c1` (tested in a mixture with another compound), the TGI (HOP-92 NSCLC) is reported as over 50 µM, the TGI (SF-295 CNS) is reported as over 50 µM and the TGI (HCT-116 colon) is reported as over 50 µM. The TGI (HS 578T breast) was over 50 µM, the TGI (EKVX NSCLC) was over 50 µM and the TGI (ACHN renal) was over 50 µM. It also gave a TGI (MDA-MB-231 breast) of over 50 µM, a TGI (RPMI-8226 leukemia) of over 50 µM and a TGI (HCT-15 colon) of over 50 µM. For the same molecule, the TGI (PC-3 prostate) was over 50 µM.
`NC(=O)c1nnsc1NC=O` gave a TGI (HOP-92 NSCLC) of over 100 µM, a TGI (SF-295 CNS) of over 100 µM and a TGI (HCT-116 colon) of over 100 µM. It also gave a TGI (HS 578T breast) of over 100 µM, a TGI (EKVX NSCLC) of over 100 µM and a TGI (ACHN renal) of over 100 µM. The TGI (MDA-MB-231 breast) was over 100 µM, the TGI (RPMI-8226 leukemia) was over 100 µM and the TGI (HCT-15 colon) was over 100 µM. The TGI (PC-3 prostate) was over 100 µM.
With `CC1CCc2sc3[nH]c(=S)n(-c4ccccc4)c(=O)c3c2C1` (stereo not drawn) the TGI (HOP-92 NSCLC) was over 100 µM, the TGI (SF-295 CNS) was over 100 µM and the TGI (HCT-116 colon) was over 100 µM. It also gave a TGI (HS 578T breast) of over 100 µM, a TGI (EKVX NSCLC) of over 100 µM and a TGI (ACHN renal) of over 100 µM. For the same molecule, the TGI (MDA-MB-231 breast) was over 100 µM, the TGI (RPMI-8226 leukemia) was over 100 µM and the TGI (HCT-15 colon) was over 100 µM. The TGI (PC-3 prostate) was over 100 µM.
`CC(NC(=O)C(N)CC(=O)O)NC(=O)N(C)C(C)(C)C` (stereo not drawn) gave a TGI (SF-295 CNS) of over 100 µM, a TGI (HCT-116 colon) of over 100 µM and a TGI (HS 578T breast) of over 100 µM. For the same molecule, the TGI (EKVX NSCLC) was over 100 µM, the TGI (ACHN renal) was over 100 µM and the TGI (MDA-MB-231 breast) was over 100 µM. It also gave a TGI (RPMI-8226 leukemia) of over 100 µM, a TGI (HCT-15 colon) of over 100 µM and a TGI (PC-3 prostate) of over 100 µM.
`C=C(C(=O)OC)c1cc2ccccc2n1S(=O)(=O)c1ccccc1` showed a TGI (HOP-92 NSCLC) of 3.34 µM, a TGI (SF-295 CNS) of 20.8 µM and a TGI (HCT-116 colon) of over 34.4 µM. The TGI (HS 578T breast) was 18.8 µM, the TGI (EKVX NSCLC) was 37.7 µM and the TGI (ACHN renal) was 5.89 µM. It also gave a TGI (MDA-MB-231 breast) of 6.16 µM, a TGI (RPMI-8226 leukemia) of 5.43 µM and a TGI (HCT-15 colon) of 5.37 µM. It also gave a TGI (PC-3 prostate) of 9.51 µM.
For `N#Cc1ccc(Oc2nc3ccc(C(F)(F)F)cc3nc2-c2ccccc2)cc1`, the TGI (HOP-92 NSCLC) was 27.5 µM, the TGI (SF-295 CNS) was 58.2 µM and the TGI (HCT-116 colon) was 28.6 µM. It also gave a TGI (HS 578T breast) of 44.5 µM, a TGI (EKVX NSCLC) of 32.5 µM and a TGI (ACHN renal) of 28.4 µM. For the same molecule, the TGI (MDA-MB-231 breast) was 36.8 µM, the TGI (HCT-15 colon) was 28.1 µM and the TGI (PC-3 prostate) was 27 µM.
In the case of `COC(=O)[C@H](Cc1ccccc1)NP(=O)(O)OCC1C=CC(n2cc(C)c(=O)[nH]c2=O)O1` (stereo partly drawn), the TGI (HOP-92 NSCLC) is reported as over 100 µM, the TGI (SF-295 CNS) is reported as over 100 µM and the TGI (HCT-116 colon) is reported as over 100 µM. The TGI (HS 578T breast) was over 100 µM, the TGI (EKVX NSCLC) was over 100 µM and the TGI (ACHN renal) was 62.6 µM. It also gave a TGI (MDA-MB-231 breast) of over 100 µM, a TGI (RPMI-8226 leukemia) of over 100 µM and a TGI (HCT-15 colon) of over 100 µM. It also gave a TGI (PC-3 prostate) of over 100 µM.
With `S=C(Nc1ccccn1)Nc1ccccc1Cl` the TGI (SF-295 CNS) was over 100 µM, the TGI (HCT-116 colon) was over 100 µM and the TGI (HS 578T breast) was over 52.2 µM. It also gave a TGI (EKVX NSCLC) of over 55.9 µM, a TGI (ACHN renal) of over 100 µM and a TGI (MDA-MB-231 breast) of over 100 µM. For the same molecule, the TGI (RPMI-8226 leukemia) was over 100 µM, the TGI (HCT-15 colon) was over 100 µM and the TGI (PC-3 prostate) was over 100 µM.
For `O=[N+]([O-])c1c2nc3n(c2cc2c1nc1n2CCC1)CCC3`, the TGI (HOP-92 NSCLC) was over 100 µM, the TGI (SF-295 CNS) was over 100 µM and the TGI (HCT-116 colon) was over 100 µM. It also gave a TGI (HS 578T breast) of over 100 µM, a TGI (EKVX NSCLC) of over 100 µM and a TGI (ACHN renal) of over 100 µM. It also gave a TGI (MDA-MB-231 breast) of over 100 µM, a TGI (RPMI-8226 leukemia) of over 100 µM and a TGI (HCT-15 colon) of over 100 µM. It also gave a TGI (PC-3 prostate) of over 100 µM.
`COc1ccc(/C=N/NC(=O)c2cnc3[nH]c(=O)n(C)c(=O)c3c2)cc1` was tested, and the TGI (SF-295 CNS) was over 100 µM, the TGI (HCT-116 colon) was over 100 µM and the TGI (HS 578T breast) was over 100 µM. It also gave a TGI (EKVX NSCLC) of over 100 µM, a TGI (ACHN renal) of over 100 µM and a TGI (MDA-MB-231 breast) of 86.8 µM. The TGI (RPMI-8226 leukemia) was over 100 µM, the TGI (HCT-15 colon) was over 100 µM and the TGI (PC-3 prostate) was over 100 µM.
`CC[C@@]12C=CC(=S)N(CCSc3ccccc3)[C@@H]1c1c(n(S(=O)(=O)c3ccc(OC)cc3)c3ccccc13)CC2` showed a TGI (HOP-92 NSCLC) of over 100 µM, a TGI (SF-295 CNS) of over 100 µM and a TGI (HCT-116 colon) of over 100 µM. It also gave a TGI (HS 578T breast) of over 100 µM, a TGI (EKVX NSCLC) of over 100 µM and a TGI (MDA-MB-231 breast) of over 100 µM. It also gave a TGI (HCT-15 colon) of over 100 µM and a TGI (PC-3 prostate) of over 100 µM.
Work on `CC(C)(C)[C@H]1CCC2(OCCO2)[C@](O)(CCCO)C1` yielded a TGI (HOP-92 NSCLC) of over 100 µM, a TGI (SF-295 CNS) of over 100 µM and a TGI (HCT-116 colon) of over 100 µM. For the same molecule, the TGI (HS 578T breast) was over 100 µM, the TGI (EKVX NSCLC) was over 100 µM and the TGI (ACHN renal) was over 100 µM. It also gave a TGI (MDA-MB-231 breast) of over 100 µM, a TGI (RPMI-8226 leukemia) of over 100 µM and a TGI (HCT-15 colon) of over 100 µM. It also gave a TGI (PC-3 prostate) of over 100 µM.
Molecule `CCN1CCC(O)(c2ccc(Oc3ccc(C)cc3)cc2)C(C(=O)c2ccc(Oc3ccc(C)cc3)cc2)C1` (stereo not drawn) has a TGI (HOP-92 NSCLC) of 21.7 µM, a TGI (SF-295 CNS) of 21.4 µM and a TGI (HCT-116 colon) of 19 µM. The TGI (HS 578T breast) was 48.3 µM, the TGI (EKVX NSCLC) was 29 µM and the TGI (ACHN renal) was 25.9 µM. It also gave a TGI (MDA-MB-231 breast) of 20.4 µM, a TGI (RPMI-8226 leukemia) of 4.26 µM and a TGI (HCT-15 colon) of 15.2 µM. For the same molecule, the TGI (PC-3 prostate) was 24.5 µM.
With `CC1(C)CCC(=O)NC1CC(=O)CC1NC(=O)CCC1(C)C` (stereo not drawn) the TGI (HOP-92 NSCLC) was over 100 µM, the TGI (SF-295 CNS) was over 100 µM and the TGI (HCT-116 colon) was over 100 µM. For the same molecule, the TGI (HS 578T breast) was over 100 µM, the TGI (EKVX NSCLC) was over 100 µM and the TGI (ACHN renal) was over 100 µM. For the same molecule, the TGI (MDA-MB-231 breast) was over 100 µM, the TGI (RPMI-8226 leukemia) was over 100 µM and the TGI (HCT-15 colon) was over 100 µM. For the same molecule, the TGI (PC-3 prostate) was over 100 µM.
In the case of `COc1ccc(-c2cc(-c3cc(F)c(Cl)cc3Cl)on2)cc1OC`, the TGI (HOP-92 NSCLC) is reported as over 100 µM, the TGI (SF-295 CNS) is reported as over 100 µM and the TGI (HCT-116 colon) is reported as over 100 µM. It also gave a TGI (HS 578T breast) of over 100 µM, a TGI (EKVX NSCLC) of over 100 µM and a TGI (ACHN renal) of over 100 µM. For the same molecule, the TGI (MDA-MB-231 breast) was over 100 µM, the TGI (RPMI-8226 leukemia) was over 100 µM and the TGI (HCT-15 colon) was over 100 µM. For the same molecule, the TGI (PC-3 prostate) was over 100 µM.
`C[C@]1(O)O[C@@H]2OCC[C@@H]2C2=C1C(=O)c1ccccc1C2=O` gave a TGI (HOP-92 NSCLC) of 31 µM, a TGI (SF-295 CNS) of 35.8 µM and a TGI (HS 578T breast) of 82.4 µM. For the same molecule, the TGI (EKVX NSCLC) was 37.1 µM, the TGI (ACHN renal) was 31.7 µM and the TGI (MDA-MB-231 breast) was 49.3 µM. For the same molecule, the TGI (RPMI-8226 leukemia) was 20.9 µM, the TGI (HCT-15 colon) was 39.1 µM and the TGI (PC-3 prostate) was 54.8 µM.
